Source: ChEMBL document CHEMBL4828706, “Mechanistic Insights into the Leishmanicidal and Bactericidal Activities of Batroxicidin, a Cathelicidin-Related Peptide from a South American Viper (Bothrops atrox)” (J Nat Prod, 2021)
pEC50: −log10 of the molar value. Converted amounts (≈) assume the structure as drawn. The source made the active and inactive calls. The calls are words filed in the database; no cut-off is given here. Where a SMILES comes first, the peptide text is derived from it.

Experiments:
Escherichia coli [1] = assay: Antibacterial activity against Escherichia coli ATCC 25922 assessed as inhibition of bacterial growth by CLSI protocol based microdilution assay; format: functional
Enterococcus faecalis = assay: Antibacterial activity against Enterococcus faecalis ATCC 29212 assessed as inhibition of bacterial growth by CLSI protocol based microdilution assay; format: functional
[2] = Cytotoxicity against human HaCat cells assessed as cell growth inhibition measured after 48 hrs by MTT assay; format: cell-based
Lipid bilayer [3] = assay: Induction of membrane destabilization in bacterial cell membrane mimic POPC:POPG (80:20) large unilamellar vesicle assessed as carboxyfluorescein leakage at MIC for Escherichia coli measured for 60 mins by fluorescence spectroscopy analysis
Pseudomonas aeruginosa [4] = assay: Antibacterial activity against Pseudomonas aeruginosa ATCC 27853 assessed as inhibition of bacterial growth by CLSI protocol based microdilution assay; format: functional
Lipid bilayer [5] = assay: Binding affinity with Biomimetic membrane dodecylphosphocholine micelles by NMR analysis
Staphylococcus aureus [6] = assay: Antibacterial activity against methicillin-resistant Staphylococcus aureus assessed as inhibition of bacterial growth by CLSI protocol based microdilution assay; format: functional
Leishmania amazonensis [7] = assay: Antileishmanial activity against Leishmania amazonensis (MHOM/BR/73/M2269) promastigotes assessed as inhibition of parasite growth measured after 24 hrs by MTT assay; format: functional, organism-based; details: MHOM/BR/73/M2269, 24 h
Pseudomonas aeruginosa [8] = assay: Antibacterial activity against multidrug-resistant Pseudomonas aeruginosa assessed as inhibition of bacterial growth by CLSI protocol based microdilution assay; format: functional
Cell membrane [9] = assay: Induction of cell membrane permeabilization in Escherichia coli ATCC 25922 assessed as cell morphology distortion by measuring modifications on bacillary structure at 0.12 uM by Atomic force microscopy analysis; format: subcellular
Escherichia coli [10] = assay: Antibacterial activity against multidrug- resistant Escherichia coli assessed as inhibition of bacterial growth by CLSI protocol based microdilution assay; format: functional
Leishmania amazonensis [11] = assay: Antileishmanial activity in Leishmania amazonensis amastigotes infected in Balb/c mouse peritoneal macrophages assessed as reduction in infection index measured after 24 hrs by Giemsa staining based assay; format: functional, organism-based; details: Peritoneal macrophage
Cell membrane [12] = assay: Disruption of membrane integrity in Leishmania amazonensis promastigotes assessed as cell morphology deformation at 61.98 uM by Atomic force microscopy analysis; format: subcellular
Staphylococcus aureus [13] = assay: Antibacterial activity against Staphylococcus aureus ATCC 29213 assessed as inhibition of bacterial growth by CLSI protocol based microdilution assay; format: functional
Cell membrane [14] = assay: Disruption of membrane integrity in Leishmania amazonensis promastigotes assessed as cell morphology deformation by measuring wrinkled patterns at 61.98 uM by Atomic force microscopy analysis; format: subcellular
Lipid bilayer [15] = assay: Induction of membrane destabilization in mammalian cell membrane mimic POPC:Chol (70:30) large unilamellar vesicle assessed as carboxyfluorescein leakage at MIC for Escherichia coli measured for 60 mins by fluorescence spectroscopy analysis
[16] = Cytotoxicity against mouse macrophage J774 cells assessed as cell growth inhibition measured after 24 hrs by Prestoblue dye based fluorescence analysis
Lipid bilayer [17] = assay: Binding affinity with Biomimetic membrane dodecylphosphocholine micelles by circular dichroism analysis
Cell membrane [18] = assay: Induction of cell membrane permeabilization in Escherichia coli ATCC 25922 assessed as cell morphology distortion by measuring modifications on bacillary structure at 0.23 uM by Atomic force microscopy analysis; format: subcellular
Cell membrane [19] = assay: Disruption of membrane integrity in Leishmania amazonensis promastigotes assessed as cell morphology deformation by measuring wrinkled patterns at 59.81 uM by Atomic force microscopy analysis; format: subcellular
Cell membrane [20] = assay: Disruption of membrane integrity in Leishmania amazonensis promastigotes assessed as cell morphology deformation at 59.81 uM by Atomic force microscopy analysis; format: subcellular
Cell membrane [21] = assay: Disruption of membrane integrity in Leishmania amazonensis promastigotes at EC50 to 2 x EC50 measured after 24 hrs by SYTOX green staining based fluorescence assay; format: subcellular
Leishmania amazonensis [22] = assay: Antileishmanial activity in Leishmania amazonensis amastigotes infected in Balb/c mouse peritoneal macrophages assessed as average parasitic charge per macrophage at 0.70 uM measured after 24 hrs by Giemsa staining based assay; format: functional; details: dose 0.7 µM
Escherichia coli [23] = assay: Antibacterial activity against Escherichia coli ATCC 2101123 assessed as inhibition of bacterial growth incubated for 18 hrs by CLSI protocol based microdilution assay; format: functional
Cell membrane [24] = assay: Induction of cell membrane permeabilization in Escherichia coli ATCC 25922 assessed as cell morphology distortion by measuring circular depressions along the bacterial surface at 0.47 uM by Atomic force microscopy analysis; format: subcellular
Cell membrane [25] = assay: Induction of cell membrane permeabilization in Escherichia coli ATCC 25922 assessed as cell morphology distortion by measuring alterations in cell shape at 0.47 uM by Atomic force microscopy analysis; format: subcellular
Escherichia coli [26] = assay: Antibacterial activity against Escherichia coli ATCC 1812446 assessed as inhibition of bacterial growth incubated for 18 hrs by CLSI protocol based microdilution assay; format: functional
Leishmania amazonensis [27] = assay: Antileishmanial activity in Leishmania amazonensis amastigotes infected in Balb/c mouse peritoneal macrophages assessed as average parasitic charge per macrophage at 1 uM measured after 24 hrs by Giemsa staining based assay; format: functional
Escherichia coli [28] = assay: Antibacterial activity against Escherichia coli ATCC 25922 assessed as inhibition of bacterial growth incubated for 18 hrs by CLSI protocol based microdilution assay; format: functional
Pseudomonas aeruginosa [29] = assay: Antibacterial activity against Pseudomonas aeruginosa ATCC 27853 assessed as inhibition of bacterial growth incubated for 18 hrs by CLSI protocol based microdilution assay; format: functional

Structure (SMILES)	MIC (Escherichia coli [1]) [µM]	MIC (Enterococcus faecalis) [µM]	CC50 at 48 h [2] [µM]	Activity (Lipid bilayer [3]) [%]	MIC (Pseudomonas aeruginosa [4]) [µM]	Activity (Lipid bilayer [5])	MIC (Staphylococcus aureus [6]) [µM]	pEC50 (Leishmania amazonensis [7])	MIC (Pseudomonas aeruginosa [8]) [µM]	MIC (Escherichia coli [10]) [µM]	Activity (Leishmania amazonensis [11])	MIC (Staphylococcus aureus [13]) [µM]	Activity (Lipid bilayer [15]) [%]	CC50 at 24 h [16] [µM]	Activity (Lipid bilayer [17])	MIC (Escherichia coli [23]) [µM]	MIC (Escherichia coli [26]) [µM]	further results
CC[C@H](C)[C@H](NC(=O)[C@@H](NC(=O)[C@H](CCCNC(=N)N)NC(=O)[C@@H]1CCCN1C(=O)[C@H](CCCCN)NC(=O)[C@H](CCCNC(=N)N)NC(=O)[C@H](Cc1ccccc1)NC(=O)[C@H](Cc1ccccc1)NC(=O)[C@H](Cc1ccccc1)NC(=O)[C@H](CCCCN)NC(=O)[C@@H](NC(=O)[C@H](CCCNC(=N)N)NC(=O)[C@H](CCCCN)NC(=O)[C@H](CCCCN)NC(=O)[C@@H](NC(=O)[C@H](CO)NC(=O)[C@H](CC(N)=O)NC(=O)[C@H](CCCCN)NC(=O)[C@H](CC(C)C)NC(=O)[C@H](CCCCN)NC(=O)[C@H](CCCCN)NC(=O)[C@H](Cc1ccccc1)NC(=O)[C@H](Cc1ccccc1)NC(=O)[C@H](CCCCN)NC(=O)[C@H](CCCCN)NC(=O)[C@H](Cc1ccccc1)NC(=O)[C@H](CCCNC(=N)N)NC(=O)[C@@H](N)CCCCN)C(C)C)C(C)C)C(C)C)C(=O)NCC(=O)N[C@H](C(=O)N[C@H](C(=O)N[C@@H](Cc1ccccc1)C(=O)N1CCC[C@H]1C(N)=O)[C@@H](C)O)C(C)C (H-KRFKKFFKKLKNSVKKRVKFFFRKPRVIGVTFP-NH2)	0.48 (≈ 1.98 µg/mL)	7.75 (≈ 32 µg/mL)	34.1	35	0.97 (≈ 4.01 µg/mL)	Active	1.94 (≈ 8.01 µg/mL)	5.05	0.94 (≈ 3.88 µg/mL)	0.48 (≈ 1.98 µg/mL)	Dose-Dependent Effect	3.87 (≈ 16 µg/mL)	30	3.51	Active	–	–	Activity (Cell membrane [9]): Active; Activity (Cell membrane [12]): Active; Activity (Cell membrane [14]): Active
CC[C@H](C)[C@H](NC(=O)[C@@H](NC(=O)[C@H](CCCNC(=N)N)NC(=O)[C@@H]1CCCN1C(=O)[C@H](CCCCN)NC(=O)[C@H](CCCNC(=N)N)NC(=O)[C@H](Cc1ccccc1)NC(=O)[C@H](Cc1ccccc1)NC(=O)[C@H](Cc1ccccc1)NC(=O)[C@H](CCCCN)NC(=O)[C@@H](NC(=O)[C@H](CCCNC(=N)N)NC(=O)[C@H](CCCCN)NC(=O)[C@H](CCCCN)NC(=O)[C@@H](NC(=O)[C@H](CO)NC(=O)[C@H](CC(N)=O)NC(=O)[C@H](CCCCN)NC(=O)[C@H](CC(C)C)NC(=O)[C@H](CCCCN)NC(=O)[C@H](CCCCN)NC(=O)[C@H](Cc1ccccc1)NC(=O)[C@H](Cc1ccccc1)NC(=O)[C@H](CCCCN)NC(=O)[C@H](CCCCN)NC(=O)[C@H](Cc1ccccc1)NC(=O)[C@H](CCCNC(=N)N)NC(=O)[C@@H](N)CCCCN)C(C)C)C(C)C)C(C)C)C(=O)NCC(=O)N[C@H](C(=O)N[C@H](C(=O)N[C@@H](Cc1ccccc1)C(=O)N1CCC[C@H]1C(=O)N[C@@H](Cc1ccccc1)C(N)=O)[C@@H](C)O)C(C)C (H-KRFKKFFKKLKNSVKKRVKFFFRKPRVIGVTFPF-NH2)	0.93 (≈ 3.98 µg/mL)	7.48 (≈ 32 µg/mL)	29.4	60	1.87 (≈ 8 µg/mL)	Active	1.87 (≈ 8 µg/mL)	5.17	4 (≈ 17.1 µg/mL)	0.94 (≈ 4.02 µg/mL)	Dose-Dependent Effect	3.74 (≈ 16 µg/mL)	60	2.14	Active	–	–	Activity (Cell membrane [18]): Active; Activity (Cell membrane [19]): Active; Activity (Cell membrane [20]): Active; Activity (Cell membrane [21]): Active
CC[C@H](C)[C@H](NC(=O)[C@@H](NC(=O)[C@H](CCCNC(=N)N)NC(=O)[C@@H]1CCCN1C(=O)[C@H](CCCCN)NC(=O)[C@H](CCCNC(=N)N)NC(=O)[C@H](Cc1ccccc1)NC(=O)[C@H](Cc1ccccc1)NC(=O)[C@H](CCCCN)NC(=O)[C@H](CCCCN)NC(=O)[C@@H](NC(=O)[C@H](CCCNC(=N)N)NC(=O)[C@H](CCCCN)NC(=O)[C@H](CCCCN)NC(=O)[C@@H](NC(=O)[C@H](CO)NC(=O)[C@H](CC(N)=O)NC(=O)[C@H](CCCCN)NC(=O)[C@H](CC(C)C)NC(=O)[C@H](CCCCN)NC(=O)[C@H](CCCCN)NC(=O)[C@H](Cc1ccccc1)NC(=O)[C@H](Cc1ccccc1)NC(=O)[C@H](CCCCN)NC(=O)[C@H](CCCCN)NC(=O)[C@H](Cc1ccccc1)NC(=O)[C@H](CCCNC(=N)N)NC(=O)[C@@H](N)CCCCN)C(C)C)C(C)C)C(C)C)C(=O)NCC(=O)N[C@H](C(=O)N[C@H](C(=O)N[C@@H](Cc1ccccc1)C(=O)N1CCC[C@H]1C(=O)N[C@@H](Cc1ccccc1)C(N)=O)[C@@H](C)O)C(C)C (H-KRFKKFFKKLKNSVKKRVKKFFRKPRVIGVTFPF-NH2)	0.48 (≈ 2.04 µg/mL)	7.51 (≈ 32 µg/mL)	21.7	50	0.94 (≈ 4 µg/mL)	Active	7.51 (≈ 32 µg/mL)	5.31	0.94 (≈ 4 µg/mL)	0.94 (≈ 4 µg/mL)	Dose-Dependent Effect	7.51 (≈ 32 µg/mL)	35	1.6	Active	8 (≈ 34.1 µg/mL)	8 (≈ 34.1 µg/mL)	Activity (Leishmania amazonensis [22]): 1.96; Activity (Cell membrane [24]): Active; Activity (Cell membrane [25]): inactive
C[C@@H]1[C@H](O)[C@@H](C)/C=C/C=C/C=C/C=C/C=C/C=C/C=C/[C@H](O[C@@H]2O[C@H](C)[C@@H](O)[C@H](N)[C@@H]2O)C[C@@H]2O[C@](O)(C[C@@H](O)C[C@@H](O)[C@H](O)CC[C@@H](O)C[C@@H](O)CC(=O)O[C@H]1C)C[C@H](O)[C@H]2C(=O)O [AMPHOTERICIN B]	–	–	–	–	–	–	–	7.62	–	–	–	–	–	–	–	–	–	Ratio (Leishmania amazonensis [27]): 5.07
C[C@H]1C(=O)O[C@@H]2CCN3CC=C(COC(=O)[C@](C)(O)[C@]1(C)O)[C@H]23 [MONOCROTALINE]	–	–	–	–	–	–	–	–	–	–	–	–	–	–	–	4 (≈ 1.3 µg/mL)	16 (≈ 5.21 µg/mL)	MIC (Escherichia coli [28]): 0.78 µM (≈ 0.254 µg/mL); MIC (Pseudomonas aeruginosa [29]): 1.56 µM (≈ 0.508 µg/mL)
